Assay [1] deals with T1, α2B Human Adrenergic Receptor (Homo sapiens, UniProt P18089).
T1 construct: expressed in transfected cells; host or cells: Y-1 cells
T1 sequence (P18089 1-450): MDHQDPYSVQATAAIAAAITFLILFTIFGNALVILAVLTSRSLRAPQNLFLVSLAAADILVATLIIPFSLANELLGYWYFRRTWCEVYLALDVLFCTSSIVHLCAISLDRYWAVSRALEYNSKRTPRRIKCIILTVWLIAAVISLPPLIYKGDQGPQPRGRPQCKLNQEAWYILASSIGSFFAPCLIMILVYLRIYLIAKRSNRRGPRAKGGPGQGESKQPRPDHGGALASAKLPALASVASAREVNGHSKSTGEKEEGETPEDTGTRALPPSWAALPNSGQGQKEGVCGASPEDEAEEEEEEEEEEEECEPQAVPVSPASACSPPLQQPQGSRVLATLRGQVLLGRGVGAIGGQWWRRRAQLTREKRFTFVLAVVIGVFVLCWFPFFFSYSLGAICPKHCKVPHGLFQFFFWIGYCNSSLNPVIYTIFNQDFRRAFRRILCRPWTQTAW
Type of assay: cell-based.

Assay [2] has as its target T2, α1A Human Adrenergic Receptor (Homo sapiens, UniProt P25100).
T2 construct: expressed in transfected cells; host or cells: LM(tk-) cells
T2 sequence (P25100 1-572): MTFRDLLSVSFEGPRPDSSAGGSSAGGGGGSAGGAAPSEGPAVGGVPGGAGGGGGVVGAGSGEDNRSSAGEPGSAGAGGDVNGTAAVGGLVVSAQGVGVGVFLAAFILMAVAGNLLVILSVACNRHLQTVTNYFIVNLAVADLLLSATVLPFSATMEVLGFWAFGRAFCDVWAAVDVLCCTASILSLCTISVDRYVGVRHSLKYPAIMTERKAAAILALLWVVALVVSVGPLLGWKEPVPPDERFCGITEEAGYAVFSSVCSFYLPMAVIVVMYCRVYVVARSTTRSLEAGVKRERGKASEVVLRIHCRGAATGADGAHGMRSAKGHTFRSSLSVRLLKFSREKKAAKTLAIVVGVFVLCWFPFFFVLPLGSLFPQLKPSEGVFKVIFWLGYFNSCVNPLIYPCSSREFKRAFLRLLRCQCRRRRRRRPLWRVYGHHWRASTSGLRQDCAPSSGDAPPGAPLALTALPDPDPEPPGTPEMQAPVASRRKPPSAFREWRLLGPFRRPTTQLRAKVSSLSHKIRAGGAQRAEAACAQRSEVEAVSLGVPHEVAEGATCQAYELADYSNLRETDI
The assay can be described thus: Equilibrium competition binding, [3H] prazosin, membranes of transfected LM(tk-) cells.

Assay [3] concerns the target α2C Human Adrenergic Receptor (Homo sapiens, UniProt P18825). Kind of assay: Equilibrium competition binding, [3H] rauwolscine, membranes of transfected LM(tk-) cells.
The target of assay [4] is T3, α2C Human Adrenergic Receptor (Homo sapiens, UniProt P18825).
T3 sequence (P18825 1-462): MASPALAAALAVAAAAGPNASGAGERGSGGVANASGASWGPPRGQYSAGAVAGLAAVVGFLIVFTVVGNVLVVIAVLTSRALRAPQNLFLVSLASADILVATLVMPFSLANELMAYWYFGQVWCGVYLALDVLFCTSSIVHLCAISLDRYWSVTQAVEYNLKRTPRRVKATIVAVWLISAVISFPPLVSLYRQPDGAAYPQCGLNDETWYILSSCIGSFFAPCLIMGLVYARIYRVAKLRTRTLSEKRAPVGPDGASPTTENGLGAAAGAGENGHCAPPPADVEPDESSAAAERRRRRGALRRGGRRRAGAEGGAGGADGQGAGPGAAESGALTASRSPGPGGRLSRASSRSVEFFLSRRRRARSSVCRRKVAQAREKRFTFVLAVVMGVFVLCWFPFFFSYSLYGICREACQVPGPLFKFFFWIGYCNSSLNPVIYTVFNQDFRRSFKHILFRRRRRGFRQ
Type of assay: cell-based. Set-up: The entire coding region of α2C (1383 bp), including 2 bp of 5′ UT and 400 bp of 3′ UT; expressed in transfected cells; host or cells: LM(tk-) cells. Conditions: functional cAMP assay.

pEC50, pKi: −log10 of the molar value.

This note sets out measurements from US6403626B1, “Benzimidazole derivatives” (Synaptic Pharmaceutical Corporation, priority 1994, dated 2002).

Compound `FC(F)(F)c1nc2ccc(NC3=NCCN3)c(Br)c2[nH]1` [Example 46, 2-Trifluoromethyl-4-bromo-5-(2-imidazolin-2-ylamino)Benzimidazole] showed a pEC50 in assay [1] of 6.23. Besides, the “I.A Alpha-2 B” value in assay [1] amounted to 0.80. Further, the results for the negative-log Ki (pKi) in assay [2] and in assay [3] were 5.15 and 5.83, respectively. For the same compound, the “I.A Alpha-2 C” value in assay [4] was 0.90.
